Laboratory results reported in PubChem BioAssay (NCI).
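A five-concentration, 48-hour dose response in 96-well plates underlies each endpoint, interpolated linearly between surrounding concentrations. The concentration for 50% growth inhibition is given as GI50. The concentration for full growth arrest is given as TGI.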

Key:
Assay in all cases: DTP human tumour cell line panel, 48 h
HL-60(TB) leukemia = system: HL-60(TB) leukemia
A498 renal = system: A498 renal
K-562 leukemia = system: K-562 leukemia
PC-3 prostate = system: PC-3 prostate
RXF 393 renal = system: RXF 393 renal
CAKI-1 renal = system: CAKI-1 renal
HT29 colon = system: HT29 colon
NCI-H23 lung = system: NCI-H23 lung
NCI/ADR-RES ovarian = system: NCI/ADR-RES ovarian
OVCAR-4 ovarian = system: OVCAR-4 ovarian
SK-MEL-28 melanoma = system: SK-MEL-28 melanoma
OVCAR-5 ovarian = system: OVCAR-5 ovarian
SNB-75 CNS = system: SNB-75 CNS
HCT-116 colon = system: HCT-116 colon
HOP-92 NSCLC = system: HOP-92 NSCLC
OVCAR-8 ovarian = system: OVCAR-8 ovarian
EKVX NSCLC = system: EKVX NSCLC
A549 NSCLC = system: A549 NSCLC
IGROV1 ovarian = system: IGROV1 ovarian
SR leukemia = system: SR leukemia
MDA-MB-435 = system: MDA-MB-435
HCC-2998 colon = system: HCC-2998 colon
NCI-H460 lung = system: NCI-H460 lung
SNB-19 CNS = system: SNB-19 CNS
T-47D breast = system: T-47D breast
TK-10 renal = system: TK-10 renal
SK-MEL-2 melanoma = system: SK-MEL-2 melanoma
SN12C renal = system: SN12C renal
MOLT-4 leukemia = system: MOLT-4 leukemia
HS 578T breast = system: HS 578T breast
ACHN renal = system: ACHN renal
SK-MEL-5 melanoma = system: SK-MEL-5 melanoma
UACC-62 melanoma = system: UACC-62 melanoma
OVCAR-3 ovarian = system: OVCAR-3 ovarian
U251 CNS = system: U251 CNS
NCI-H226 lung = system: NCI-H226 lung
COLO 205 colon = system: COLO 205 colon
RPMI-8226 leukemia = system: RPMI-8226 leukemia
SF-268 CNS = system: SF-268 CNS
786-0 renal = system: 786-0 renal
DU-145 prostate = system: DU-145 prostate
SF-295 CNS = system: SF-295 CNS
KM12 colon = system: KM12 colon
SK-OV-3 ovarian = system: SK-OV-3 ovarian
MDA-MB-231 breast = system: MDA-MB-231 breast
MALME-3M melanoma = system: MALME-3M melanoma
CCRF-CEM leukemia = system: CCRF-CEM leukemia
UO-31 renal = system: UO-31 renal
MCF7 breast = system: MCF7 breast
M14 melanoma = system: M14 melanoma
HCT-15 colon = system: HCT-15 colon
LOX IMVI melanoma = system: LOX IMVI melanoma
SF-539 CNS = system: SF-539 CNS
SW-620 colon = system: SW-620 colon
NCI-H522 lung = system: NCI-H522 lung
BT-549 breast = system: BT-549 breast
HOP-62 NSCLC = system: HOP-62 NSCLC
UACC-257 melanoma = system: UACC-257 melanoma

`CCCn1cnc2c(c1=N)C(c1ccc(Cl)cc1)c1sc3c(CC)cccc3c1O2` (stereo not given) showed a GI50 (HL-60(TB) leukemia) of 307 nM, a TGI (HL-60(TB) leukemia) of 1660 nM and a GI50 (A498 renal) of 359 nM. The TGI (A498 renal) was 1830 nM, the GI50 (K-562 leukemia) was 328 nM and the TGI (K-562 leukemia) was 6150 nM. For the same molecule, the GI50 (PC-3 prostate) was 564 nM, the TGI (PC-3 prostate) was 14700 nM and the GI50 (RXF 393 renal) was 273 nM. The TGI (RXF 393 renal) was 1310 nM, the GI50 (CAKI-1 renal) was 361 nM and the TGI (CAKI-1 renal) was 15600 nM. The GI50 (HT29 colon) was 725 nM, the TGI (HT29 colon) was 6130 nM and the GI50 (NCI-H23 lung) was 974 nM. For the same molecule, the TGI (NCI-H23 lung) was 11300 nM, the GI50 (NCI/ADR-RES ovarian) was 419 nM and the TGI (NCI/ADR-RES ovarian) was 2750 nM. The GI50 (OVCAR-4 ovarian) was 1200 nM, the TGI (OVCAR-4 ovarian) was 18200 nM and the GI50 (SK-MEL-28 melanoma) was 2990 nM. It also gave a TGI (SK-MEL-28 melanoma) of 22400 nM, a GI50 (OVCAR-5 ovarian) of 2130 nM and a TGI (OVCAR-5 ovarian) of 13300 nM. For the same molecule, the GI50 (SNB-75 CNS) was 202 nM, the TGI (SNB-75 CNS) was 878 nM and the GI50 (HCT-116 colon) was 446 nM. The TGI (HCT-116 colon) was 10300 nM, the GI50 (HOP-92 NSCLC) was 1250 nM and the TGI (HOP-92 NSCLC) was 12800 nM. For the same molecule, the GI50 (OVCAR-8 ovarian) was 1380 nM, the TGI (OVCAR-8 ovarian) was 13400 nM and the GI50 (EKVX NSCLC) was 1120 nM. For the same molecule, the TGI (EKVX NSCLC) was 16600 nM, the GI50 (A549 NSCLC) was 824 nM and the TGI (A549 NSCLC) was 14200 nM. It also gave a GI50 (IGROV1 ovarian) of 607 nM, a TGI (IGROV1 ovarian) of 11800 nM and a GI50 (SR leukemia) of 342 nM. For the same molecule, the TGI (SR leukemia) was 5010 nM, the GI50 (MDA-MB-435) was 250 nM and the TGI (MDA-MB-435) was 1000 nM. For the same molecule, the GI50 (HCC-2998 colon) was 1750 nM, the TGI (HCC-2998 colon) was 7550 nM and the GI50 (NCI-H460 lung) was 392 nM. The TGI (NCI-H460 lung) was 10400 nM, the GI50 (SNB-19 CNS) was 592 nM and the TGI (SNB-19 CNS) was 15400 nM. The GI50 (T-47D breast) was 581 nM, the TGI (T-47D breast) was 14900 nM and the GI50 (TK-10 renal) was 7620 nM. It also gave a TGI (TK-10 renal) of 23500 nM, a GI50 (SK-MEL-2 melanoma) of 925 nM and a TGI (SK-MEL-2 melanoma) of 16000 nM. The GI50 (SN12C renal) was 1580 nM, the TGI (SN12C renal) was 15000 nM and the GI50 (MOLT-4 leukemia) was 644 nM. It also gave a TGI (MOLT-4 leukemia) of 9250 nM, a GI50 (HS 578T breast) of 434 nM and a TGI (HS 578T breast) of 5640 nM. The GI50 (ACHN renal) was 637 nM, the TGI (ACHN renal) was 17000 nM and the GI50 (SK-MEL-5 melanoma) was 683 nM. For the same molecule, the TGI (SK-MEL-5 melanoma) was 11500 nM, the GI50 (UACC-62 melanoma) was 515 nM and the TGI (UACC-62 melanoma) was 14500 nM. For the same molecule, the GI50 (OVCAR-3 ovarian) was 347 nM, the TGI (OVCAR-3 ovarian) was 1780 nM and the GI50 (U251 CNS) was 505 nM. For the same molecule, the TGI (U251 CNS) was 10900 nM, the GI50 (NCI-H226 lung) was 936 nM and the TGI (NCI-H226 lung) was 10200 nM. It also gave a GI50 (COLO 205 colon) of 971 nM, a TGI (COLO 205 colon) of 3930 nM and a GI50 (RPMI-8226 leukemia) of 471 nM. The TGI (RPMI-8226 leukemia) was 7390 nM, the GI50 (SF-268 CNS) was 820 nM and the TGI (SF-268 CNS) was 15200 nM. The GI50 (786-0 renal) was 555 nM, the TGI (786-0 renal) was 12900 nM and the GI50 (DU-145 prostate) was 615 nM. It also gave a TGI (DU-145 prostate) of 11400 nM, a GI50 (SF-295 CNS) of 385 nM and a TGI (SF-295 CNS) of 3750 nM. The GI50 (KM12 colon) was 448 nM, the TGI (KM12 colon) was 13400 nM and the GI50 (SK-OV-3 ovarian) was 670 nM. For the same molecule, the TGI (SK-OV-3 ovarian) was 20800 nM, the GI50 (MDA-MB-231 breast) was 1950 nM and the TGI (MDA-MB-231 breast) was 13700 nM. The GI50 (MALME-3M melanoma) was 722 nM, the TGI (MALME-3M melanoma) was 20300 nM and the GI50 (CCRF-CEM leukemia) was 370 nM. For the same molecule, the GI50 (UO-31 renal) was 712 nM, the TGI (UO-31 renal) was 18300 nM and the GI50 (MCF7 breast) was 354 nM. For the same molecule, the TGI (MCF7 breast) was 11700 nM, the GI50 (M14 melanoma) was 588 nM and the TGI (M14 melanoma) was 9750 nM. It also gave a GI50 (HCT-15 colon) of 497 nM, a TGI (HCT-15 colon) of 10400 nM and a GI50 (LOX IMVI melanoma) of 706 nM. It also gave a TGI (LOX IMVI melanoma) of 10900 nM, a GI50 (SF-539 CNS) of 410 nM and a TGI (SF-539 CNS) of 1900 nM. For the same molecule, the GI50 (SW-620 colon) was 422 nM, the TGI (SW-620 colon) was 12800 nM and the GI50 (NCI-H522 lung) was 407 nM. For the same molecule, the TGI (NCI-H522 lung) was 5530 nM, the GI50 (BT-549 breast) was 1960 nM and the TGI (BT-549 breast) was 16700 nM. It also gave a GI50 (HOP-62 NSCLC) of 563 nM, a TGI (HOP-62 NSCLC) of 8930 nM and a GI50 (UACC-257 melanoma) of 12200 nM. The TGI (UACC-257 melanoma) was 33700 nM.
